# Results: patent publication US9526796B2, “Peptide-based in vivo siRNA delivery system” (priority 2010, dated 2016)
# Non-standard residues stand in square brackets, D forms with d. Primed or numbered codes have the meaning given here. No end group written: not given here. *: point of attachment. Myristoyl = CCCCCCCCCCCCCC(=O)*; PEG24′ = not defined here; Nle = CCCC[C@H](N)C(=O)O
# Tests used:
# Factor VII = assay: Knockdown of plasma Factor VII activity in rats after co-injection of CDM-NAG masked melittin and cholesterol-Factor VII siRNA; type: in vivo; settings: 5× CDM-NAG, 3 mg/kg cholesterol-Factor VII siRNA
# Protocol: (§1) RNAi polynucleotide conjugates and masked melittin peptides were synthesized as described above. Six to eight week old mice (strain C57BL/6 or ICR, ˜18-20 g each) were obtained from Harlan Sprague Dawley (Indianapolis Ind.). Mice were housed at least 2 days prior to injection. Feeding was performed ad libitum with Harlan Teklad Rodent Diet (Harlan, Madison Wis.). Mice were injected with 0.2 mL solution of delivery peptide and 0.2 mL siRNA conjugates into the tail vein. For simultaneous injection of delivery peptide and siRNA, the siRNA-conjugate was added to modified peptide prior to injection and the entire amount was injected. The composition was soluble and nonaggregating in physiological conditions. Solutions were injected by infusion into the tail vein.
# Wistar Han rats, 175-200 g were obtained from Charles River (Wilmington, Mass.). Rats were housed at least 1 week prior to injection. Injection volume for rats was typically 1 ml.
# Plasma samples from animals were prepared by collecting blood (9 volumes) (by submandibular bleeding for mice or from jugular vein for rats) into microcentrifuge tubes containing 0.109 mol/L sodium citrate anticoagulant (1 volume) following standard procedures. F7 activity in plasma is measured with a chromogenic method using a BIOPHEN VII kit (Hyphen BioMed/Aniara, Mason, Ohio) following manufacturer's recommendations. Absorbance of colorimetric development was measured using a Tecan Safire2 microplate reader at 405 nm.
# The indicated melittin was reversibly modified with 5×CDM-NAG as described above. The indicated amount of melittin, in mg per kg animal weight, was then co-injected with the 3 mg/kg cholesterol— Factor VII siRNA. Effect on Factor VII levels were determined as described above.
# ApoB = assay: Knockdown of endogenous serum ApoB in mice after co-injection of masked melittin delivery peptide and ApoB siRNA-cholesterol conjugate; type: in vivo; settings: for % knockdown: 200 μg siRNA; for percent knockdown: CDM-NAG (5×)
# Protocol: as §1
# Mice were fasted for 4 h (16 h for rats) before serum collection by submandibular bleeding. For rats blood was collected from the jugular vein. Serum ApoB protein levels were determined by standard sandwich ELISA methods. Briefly, a polyclonal goat anti-mouse ApoB antibody and a rabbit anti-mouse ApoB antibody (Biodesign International) were used as capture and detection antibodies respectively. An HRP-conjugated goat anti-rabbit IgG antibody (Sigma) was applied afterwards to bind the ApoB/antibody complex. Absorbance of tetramethyl-benzidine (TMB, Sigma) colorimetric development was then measured by a Tecan Safire2 (Austria, Europe) microplate reader at 450 nm.
# Melittin was reversibly modified with CDM-NAG as described above. The indicated amount of melittin was then co-injected with the 200 μg ApoB siRNA-cholesterol conjugate. Effect on ApoB levels were determined as described above.
# Melittin was reversibly modified with CDM-NAG as described above. The indicated amount of melittin was then co-injected with 50 μg ApoB siRNA-cholesterol conjugate. Effect on ApoB levels were determined as described above.
# Melittin was reversibly modified with CDM-NAG (5×) as described above. The indicated amount of melittin was then co-injected with the indicated amount of ApoB siRNA-cholesterol conjugate. Effect on ApoB levels were determined as described above.
# Melittin was reversibly modified with the indicated amount of CDM-NAG as described above. 50 μg melittin was then co-injected with the 100 μg ApoB siRNA-cholesterol conjugate. Effect on ApoB levels were determined as described above.
# Melittin peptides having the indicated sequence were reversibly modified with CDM-NAG (5×) as described above. The indicated amount of melittin was then co-injected with the indicated amount of ApoB siRNA-cholesterol conjugate. Effect on ApoB levels were determined as described above.
# Melittin peptides containing the indicated PEG amino terminal modifications were synthesized as described above. The PEG amino terminal modified melittin peptides were then reversibly modified with 5×CDM-NAG as described above. The indicated amount of Melittin was then co-injected with the 100-200 μg ApoB siRNA-cholesterol conjugate. Effect on ApoB levels were determined as described above. Addition of PEG less than 5 kDa in size decreased toxicity of the melittin peptides.
# [1] = peptide 1 (mg per kg animal weight), relative to isotonic glucose injected animals
# [2] = amount in column 'siRNA' 400 μg
# [3] = 50 μg peptide per mouse, 100 μg siRNA per mouse
# [4] = 100 μg peptide per mouse, 100 μg siRNA per mouse
substance,measurement,setting,value
"GIGAILKVLATGLPTLISWIKNKRKQ (listed as Apis florea) [Seq ID 1, Apis florea melittin]",Factor VII knockdown,Factor VII; [1],30
same,Factor VII knockdown,Factor VII; peptide 3 (mg per kg),83
same,Factor VII knockdown,Factor VII; peptide 10 (mg per kg),90
same,Factor VII knockdown,Factor VII; peptide 20 (mg per kg),95
same,% knockdown,"ApoB; 5× CDM-NAG, 100 μg peptide, relative to isotonic glucose injected animals",25%
same,% knockdown,"ApoB; 5× CDM-NAG, 200 μg peptide",51%
same,% knockdown,"ApoB; 5× CDM-NAG, 400 μg peptide",78%
same,% knockdown,"ApoB; 5× CDM-NAG, 800 μg peptide",87%
same,% knockdown,"ApoB; 5× CDM-NAG, 1200 μg peptide",94%
same,% knockdown,"ApoB; 5× CDM-PEG, 800 μg peptide, relative to isotonic glucose injected animals",0%
same,percent knockdown,ApoB; amount in column 'siRNA' 200 μg,90%
same,percent knockdown,ApoB; [2],80%
Mel-Cys (Seq ID 62): melittin peptide derivative (GIGAILKVLATGLPTLISWIKNKRKQC; C-terminal Cys; melittin-like peptide derive from Apis florea),percent knockdown,"ApoB; 400 μg peptide per mouse, 100 μg siRNA per mouse",83%
Mel-NH2 (Seq ID 116): melittin peptide derivative (GIGAILKVLATGLPTLISWIKNKRKQ-NH2),percent knockdown,ApoB; [3],86%
N22T Mel-NH2 (Seq ID 15): melittin peptide derivative (GIGAILKVLATGLPTLISWIKTKRKQ-NH2),percent knockdown,ApoB; [3],34%
PEG24-GKLK-Mel G1L (Seq ID 59): melittin peptide derivative ([PEG24′]GKLKLIGAILKVLATGLPTLISWIKNKRKQ),percent knockdown,ApoB; [3],85%
PEG(5k)-KLK-dMel G1Y (Seq ID 56): melittin peptide derivative ({PEG 5k}-KLK[dY][dI]G[dA][dI][dL][dK][dV][dL][dA][dT]G[dL][dP][dT][dL][dI][dS][dW][dI][dK][dN][dK][dR][dK][dQ]),percent knockdown,"ApoB; 300 μg peptide per mouse, 100 μg siRNA per mouse",72%
QKRKNKIWSILTPLGTALVKLIAGIG-NH2 [Seq ID 96],percent knockdown,ApoB; siRNA 20 mg/kg,70%
QQKKKKIWSILAPLGTTLVKLVAGIC-NH2 [Seq ID 93],percent knockdown,ApoB; siRNA 20 mg/kg,70%
"QQRKRKIWSILAALGTTLVKLVAGIC-NH2 (also: retro-inverso, methoxy, position not given here) [Seq ID 95 Retroinverso Methoxy]",percent knockdown,ApoB; amount in column 'siRNA' 30 mg/kg,39%
QQRKRKIWSILAALGTTLVKLVAGIC-NH2 [Seq ID 95],percent knockdown,ApoB; siRNA 20 mg/kg,91%
"QQRKRKIWSILAPLGTTLVKLVAGIC-(N-PDP-PE)-NH2 (not fully specified (some residues, C-terminus); also: D-amino acids, positions not given here) [PE = dioleolyl-phosphatidyl-ethanolamine]",percent knockdown,"ApoB; 400 μg peptide per mouse, 200 μg siRNA per mouse",55%
QQRKRKIWSILAPLGTTLVKLVAGIC-NH2 [Seq ID 92],percent knockdown,ApoB; [2],85%
same,percent knockdown,ApoB; siRNA 20 mg/kg,94%
"T11A, T15A, S18A (Seq ID 40): melittin peptide derivative (GIGAILKVLACGLPALIAWIKNKRKQ; melittin-like peptide derive from Apis florea)",percent knockdown,ApoB; [3],38%
"T11G, T15G, S18G (Seq ID 39): melittin peptide derivative (GIGAILKVLACGLPGLIGWIKNKRKQ; melittin-like peptide derive from Apis florea)",percent knockdown,ApoB; [3],32%
YIGAILKVLATGLPTLISWIKNKRKQ (melittin-like peptide derive from Apis florea) [Seq ID 11],Factor VII knockdown,Factor VII; [1],93
same,Factor VII knockdown,Factor VII; peptide 3 (mg per kg),97
"dimethyl-dMel I2L, I5L, T11C, I17L, I20L dMel (Seq ID 46): melittin peptide derivative (dimethyl-GLGALLKVLACGLPTLLSWLKNKRKQ; not fully specified (some residues); also: D-amino acids, positions not given here)",percent knockdown,ApoB; [4],87%
"dimethyl-dMel I2Nle, I5Nle, T11C, I17Nle, I20Nle dMel (Seq ID 47): melittin peptide derivative (G[Nle]GA[Nle]LKVLACGLPTL[Nle]SW[Nle]KNKRKQ; also: dimethyl, site not given here, D-amino acids, positions not given here)",percent knockdown,ApoB; [4],78%
myristoyl-CKLK-Mel G1L (Seq ID 111): melittin peptide derivative (Myristoyl-CKLKLIGAILKVLATGLPTLISWIKNKRKQ),percent knockdown,"ApoB; 80 μg peptide per mouse, 100 μg siRNA per mouse",96%
